Among the data in patent US12528791B2 (priority 2019, dated 2026) are THRβ-Selectivity values, retold here.

The target in one experiment is T1, THR-β/RXR-α (Homo sapiens, UniProt P10828).
T1 sequence (P10828 202-461 limits assumed): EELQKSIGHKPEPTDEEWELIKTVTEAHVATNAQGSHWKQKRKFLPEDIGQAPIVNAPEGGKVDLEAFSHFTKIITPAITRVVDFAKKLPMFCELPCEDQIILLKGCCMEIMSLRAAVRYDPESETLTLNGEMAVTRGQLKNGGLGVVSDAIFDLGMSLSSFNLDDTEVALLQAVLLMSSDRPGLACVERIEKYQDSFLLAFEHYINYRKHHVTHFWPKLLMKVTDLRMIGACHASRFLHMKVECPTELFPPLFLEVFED
T1 sequence (P19793 225-462 partner limits assumed): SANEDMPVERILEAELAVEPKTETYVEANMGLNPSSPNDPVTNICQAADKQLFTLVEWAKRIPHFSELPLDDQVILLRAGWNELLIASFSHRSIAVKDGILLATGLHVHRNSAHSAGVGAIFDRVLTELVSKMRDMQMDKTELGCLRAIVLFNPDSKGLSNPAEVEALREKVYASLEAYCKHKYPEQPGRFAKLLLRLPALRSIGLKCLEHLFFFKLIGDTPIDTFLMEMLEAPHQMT
T1 sequence (Q15596 679-703 partner limits assumed): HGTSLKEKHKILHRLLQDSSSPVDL
It counts as biochemical. The following applies: RXR heterodimer assay; compound activity normalized to T3 for THR-β/RXR-α and THR-α/RXR-α.

A further experiment deals with T2, TR beta-LBD (Homo sapiens, UniProt P10828).
T2 sequence (P10828 217-461 limits assumed): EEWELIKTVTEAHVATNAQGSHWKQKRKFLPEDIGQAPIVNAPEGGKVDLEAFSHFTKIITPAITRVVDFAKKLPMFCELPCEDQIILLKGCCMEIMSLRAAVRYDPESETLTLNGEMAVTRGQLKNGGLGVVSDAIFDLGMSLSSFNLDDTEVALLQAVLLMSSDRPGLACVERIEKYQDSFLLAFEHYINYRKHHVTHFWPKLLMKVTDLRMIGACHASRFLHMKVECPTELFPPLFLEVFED
It counts as biochemical. The note with it: TR-FRET assay; THR beta over THR alpha, derived from T3-selectivity normalized data.

Bounds are passed on as bounds.

Take `N#Cc1nn(-c2cc(Cl)c(Oc3ccc4ncn(C5CC5)c4c3)c(Cl)c2)c(=O)[nH]c1=O` [Example 23, 2-(3,5-dichloro-4-((1-cyclopropyl-1H-benzo[d]imidazol-6-yl)oxy)phenyl)-3,5-dioxo-2,3,4,5-tetrahydro-1,2,4-triazine-6-carbonitrile]: the THRβ-Selectivity on THR-β/RXR-α was 5.7; at TR beta-LBD, 20.2.

As to `CC(C)n1cnc2ccc(Oc3c(Cl)cc(NC(=O)c4noc(=O)[nH]4)cc3Cl)cc21` [Example 20, N-(3,5-dichloro-4-((1-isopropyl-1H-benzo[d]imidazol-6-yl)oxy)phenyl)-5-oxo-4,5-dihydro-1,2,4-oxadiazole-3-carboxamide], the THRβ-Selectivity at THR-β/RXR-α stood at 11.3; at TR beta-LBD it was 348.9.

On to `CC(C)n1cnc2ccc(Oc3c(Cl)cc(-n4nc(C#N)c(=O)[nH]c4=O)cc3Cl)cc21` [Example 21, 2-(3,5-dichloro-4-((1-isopropyl-1H-benzo[d]imidazol-6-yl)oxy)phenyl)-3,5-dioxo-2,3,4,5-tetrahydro-1,2,4-triazine-6-carbonitrile], for which the THRβ-Selectivity was 10.9 on THR-β/RXR-α and 12.9 on TR beta-LBD.

As to `Cc1n[nH]c2ncc(Oc3c(Cl)cc(-n4nc(C#N)c(=O)[nH]c4=O)cc3Cl)cc12` [Example 7, 2-(3,5-dichloro-4-((3-methyl-1H-pyrazolo[3,4-b]pyridin-5-yl)oxy)phenyl)-3,5-dioxo-2,3,4,5-tetrahydro-1,2,4-triazine-6-carbonitrile], the THRβ-Selectivity on THR-β/RXR-α is recorded as 9.7; on TR beta-LBD, 9.5.

Consider `COc1n[nH]c2ccc(Oc3c(Cl)cc(-n4nc(C#N)c(=O)[nH]c4=O)cc3Cl)cc12` [Example 9, 2-(3,5-dichloro-4-((3-methoxy-1H-indazol-5-yl)oxy)phenyl)-3,5-dioxo-2,3,4,5-tetrahydro-1,2,4-triazine-6-carbonitrile], for which the THRβ-Selectivity at THR-β/RXR-α was 10.3; at TR beta-LBD, 8.0.

As for `Cc1ccnc2ccc(Oc3c(Cl)cc(NC(=O)c4noc(=O)[nH]4)cc3Cl)cc12` [Example 25, N-(3,5-dichloro-4-((4-methylquinolin-6-yl)oxy)phenyl)-5-oxo-4,5-dihydro-1,2,4-oxadiazole-3-carboxamide], the values for the THRβ-Selectivity at THR-β/RXR-α and on TR beta-LBD were 5.7 and 1286.7, respectively.

As to `Cc1n[nH]c2ccc(Oc3c(Cl)cc(-c4n[nH]c(=O)[nH]c4=O)cc3Cl)cc12` [Example 5, 6-(3,5-dichloro-4-((3-methyl-1H-indazol-5-yl)oxy)phenyl)-1,2,4-triazine-3,5(2H,4H)-dione], the THRβ-Selectivity on THR-β/RXR-α amounted to 3.1; on TR beta-LBD it was 15.6.

In the case of `CCc1n[nH]c2ccc(Oc3c(Cl)cc(-c4n[nH]c(=O)[nH]c4=O)cc3Cl)cc12` [Example 2, 6-(3,5-dichloro-4-((3-ethyl-1H-indazol-5-yl)oxy)phenyl)-1,2,4-triazine-3,5(2H,4H)-dione], the THRβ-Selectivity on THR-β/RXR-α stood at 3.6; on TR beta-LBD, 28.0.

As to `Cn1cc2cc(Oc3c(Cl)cc(-n4nc(C#N)c(=O)[nH]c4=O)cc3Cl)ccc2n1` [Example 17, 2-(3,5-dichloro-4-((2-methyl-2H-indazol-5-yl)oxy)phenyl)-3,5-dioxo-2,3,4,5-tetrahydro-1,2,4-triazine-6-carbonitrile], the THRβ-Selectivity at THR-β/RXR-α stood at 6.3; at TR beta-LBD, 2.2.

As for `Cn1cnc2ccc(Oc3c(Cl)cc(-n4nc(C#N)c(=O)[nH]c4=O)cc3Cl)cc21` [Example 19, 2-(3,5-dichloro-4-((1-methyl-1H-benzo[d]imidazol-6-yl)oxy)phenyl)-3,5-dioxo-2,3,4,5-tetrahydro-1,2,4-triazine-6-carbonitrile], the THRβ-Selectivity turned out to be 5.6 on THR-β/RXR-α and 38.0 at TR beta-LBD.

Regarding `Cc1n[nH]c2ncc(Oc3c(Cl)cc(NC(=O)c4noc(=O)[nH]4)cc3Cl)cc12` [Example 6, N-(3,5-dichloro-4-((3-methyl-1H-pyrazolo[3,4-b]pyridin-5-yl)oxy)phenyl)-5-oxo-4,5-dihydro-1,2,4-oxadiazole-3-carboxamide], the results for the THRβ-Selectivity on THR-β/RXR-α and on TR beta-LBD were 5.6 and >18.5, respectively.
